{"source": "ChEMBL document CHEMBL3217583", "about": "“The MEP pathway and the development of inhibitors as potential anti-infective agents” (Medchemcomm, 2012)", "key": {"[1]": {"assay": "Inhibition of recombinant Pseudomonas aeruginosa DXS expressed in Escherichia coli by spectrophotometric analysis"}, "[2]": {"assay": "Inhibition of Escherichia coli DXS"}, "[3]": {"assay": "Inhibition of Escherichia coli IspF by fluorescence titration assay"}, "[4]": {"assay": "Inhibition of Escherichia coli IspC"}, "[5]": {"biological_target": "T1, 2-C-methyl-D-erythritol 4-phosphate cytidylyltransferase, chloroplastic (Arabidopsis thaliana, UniProt P69834)", "T1 sequence (P69834 whole entry)": "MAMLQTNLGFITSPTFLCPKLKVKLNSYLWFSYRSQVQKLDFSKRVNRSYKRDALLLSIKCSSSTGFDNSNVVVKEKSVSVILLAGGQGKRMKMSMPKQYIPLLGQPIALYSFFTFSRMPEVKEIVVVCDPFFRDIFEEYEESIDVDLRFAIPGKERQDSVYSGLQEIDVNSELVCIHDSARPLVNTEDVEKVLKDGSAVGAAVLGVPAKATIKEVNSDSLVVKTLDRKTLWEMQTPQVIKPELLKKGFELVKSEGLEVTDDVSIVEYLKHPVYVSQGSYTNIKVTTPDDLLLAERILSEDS", "assay": "Inhibition of Arabidopsis thaliana IspD"}, "[6]": {"assay": "Inhibition of Escherichia coli IspE by CDP-ME-coupled photometric analysis"}, "[7]": {"assay": "Inhibition of Escherichia coli IspE"}, "[8]": {"assay": "Inhibition of Escherichia coli IspF"}, "[9]": {"assay": "Inhibition of recombinant Plasmodium falciparum IspF measured for 30 mins by photometric plate reader analysis"}, "[10]": {"biological_target": "2-C-methyl-D-erythritol 2,4-cyclodiphosphate synthase (Mycobacterium tuberculosis (strain ATCC 25618 / H37Rv), UniProt P9WKG5)", "sequence (P9WKG5 whole entry)": "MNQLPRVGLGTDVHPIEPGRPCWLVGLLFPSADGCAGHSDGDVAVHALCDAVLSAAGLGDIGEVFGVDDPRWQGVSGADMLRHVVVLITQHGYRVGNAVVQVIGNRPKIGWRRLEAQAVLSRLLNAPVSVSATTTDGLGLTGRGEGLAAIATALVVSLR", "assay": "Inhibition of Mycobacterium tuberculosis H37Rv IspF expressed in Escherichia coli XL1-Blue measured for 30 mins by photometric plate reader analysis"}, "[11]": {"assay": "Inhibition of IspD (unknown origin)"}, "[12]": {"assay": "Inhibition of Aquifex aeolicus IspH expressed in Escherichia coli BL21(DE3) using HMBPP as substrate preincubated for 10 mins followed by substrate addition"}, "[13]": {"assay": "Inhibition of Chlamydomonas DXS"}, "[14]": {"assay": "Competitive inhibition of Escherichia coli IspG expressed in Escherichia coli BL21(DE3) using MEcPP as substrate preincubated for 10 mins followed by substrate addition by Michaelis-Menten equation analysis"}, "[15]": {"assay": "Inhibition of Aquifex aeolicus IspH expressed in Escherichia coli BL21(DE3)"}}, "data": [{"molecule": "O=C(O)C(=O)CF", "values": [{"measurement": "IC50", "setting": "[1]", "value": 400, "unit": "µM"}, {"measurement": "IC50", "setting": "[2]", "value": 80, "unit": "µM"}]}, {"molecule": "CN(C)c1cccc2c(S(=O)(=O)NCCOP(=O)(O)OP(=O)(O)OC[C@H]3O[C@@H](n4ccc(N)nc4=O)[C@H](O)[C@@H]3O)cccc12", "values": [{"measurement": "IC50", "setting": "[3]", "value": 3000, "unit": "µM"}]}, {"molecule": "CC(=O)N(O)CCCP(=O)(O)O", "values": [{"measurement": "IC50", "setting": "[4]", "value": 0.05, "unit": "µM"}]}, {"molecule": "Oc1c(Cc2ccccc2)c(Cl)nc2ncnn12", "values": [{"measurement": "IC50", "setting": "[5]", "value": 0.14, "unit": "µM"}]}, {"molecule": "Nc1ccn([C@@H]2O[C@H](CNC(=O)CCc3nc4ccccc4[nH]3)[C@@H](O)[C@H]2O)c(=O)n1", "values": [{"measurement": "IC50", "setting": "[6]", "value": 1670, "unit": "µM"}]}, {"molecule": "CCS(=O)(=O)NCC#Cc1cn(C2CCCS2)c(=O)nc1N", "note": "(stereo unspecified)", "values": [{"measurement": "IC50", "setting": "[7]", "value": 6, "unit": "µM"}]}, {"molecule": "Nc1ccn(Cc2ccc(CNC(=O)c3ccccc3)c3ccccc23)c(=O)n1", "values": [{"measurement": "IC50", "setting": "[8]", "value": 450, "unit": "µM"}]}, {"molecule": "CCOC(=O)C1=C(C)N=c2s/c(=C\\c3cc(Br)c(O)c(Br)c3)c(=O)n2C1c1cccs1", "note": "(stereo unspecified)", "values": [{"measurement": "IC50", "setting": "[9]", "value": 9.6, "unit": "µM"}, {"measurement": "IC50", "setting": "[10]", "value": 6.1, "unit": "µM"}]}, {"molecule": "O=P(O)(O)OC[C@@H](O)[C@@H](O)CO", "values": [{"measurement": "IC50", "setting": "[11]", "value": 1360, "unit": "µM"}]}, {"molecule": "C#CCCOP(=O)(O)OP(=O)(O)O", "note": "[BUT-3-YNYL DIPHOSPHATE]", "values": [{"measurement": "IC50", "setting": "[12]", "value": 0.45, "unit": "µM"}]}, {"molecule": "O=CN(O)CCCP(=O)(O)O", "note": "[FOSMIDOMYCIN]", "values": [{"measurement": "IC50", "setting": "[4]", "value": 0.035, "unit": "µM"}]}, {"molecule": "CC1(C)C(=O)ON(Cc2ccccc2Cl)C1=O", "note": "[KETOCLOMAZONE]", "values": [{"measurement": "IC50", "setting": "[13]", "value": 100, "unit": "µM"}]}, {"molecule": "C#CCOP(=O)(O)OP(=O)(O)O", "note": "[PROP-2-YNYL DIPHOSPHATE]", "values": [{"measurement": "IC50", "setting": "[14]", "value": 0.75, "unit": "µM"}]}, {"molecule": "O=P(O)(O)OP(=O)(O)OCCc1cccnc1", "note": "[PYRIDIN-3-YL-ETHYL-DIPHOSPHATE]", "values": [{"measurement": "IC50", "setting": "[15]", "value": 9.1, "unit": "µM"}]}]}
